# In ChEMBL document CHEMBL3045426, “Synthesis, Antiviral and Antibacterial Activities of Isatin Mannich Bases” (Med Chem Res, 2005):
# Tested on: Vibrio cholerae
# Assay: Antimicrobial activity against Vibrio cholerae 01 after 18 to 20 hr by agar dilution method
# Format: functional
# Settings: 1
row,Structure (SMILES),MIC [µg/mL]
1,COc1cccc(N2CCN(CN3C(=O)/C(=N\c4ncc(Cc5cc(OC)c(OC)c(OC)c5)c(N)n4)c4cc(Cl)ccc43)CC2)c1,1.22

# Tested on: Priestia megaterium
# Assay: Antimicrobial activity against Bacillus megaterium after 18 to 20 hr by agar dilution method
# Format: functional
# Settings: not given
row,Structure (SMILES),MIC [µg/mL]
1,COc1cccc(N2CCN(CN3C(=O)/C(=N\c4ncc(Cc5cc(OC)c(OC)c(OC)c5)c(N)n4)c4cc(Cl)ccc43)CC2)c1,1250

# Tested on: Enterobacter
# Assay: Antimicrobial activity against Enterobacter after 18 to 20 hr by agar dilution method
# Format: functional
# Settings: not given
row,Structure (SMILES),MIC [µg/mL]
1,COc1cccc(N2CCN(CN3C(=O)/C(=N\c4ncc(Cc5cc(OC)c(OC)c(OC)c5)c(N)n4)c4cc(Cl)ccc43)CC2)c1,1250

# Tested on: Citrobacter freundii
# Assay: Antimicrobial activity against Citrobacter freundii after 18 to 20 hr by agar dilution method
# Format: functional
# Settings: not given
row,Structure (SMILES),MIC [µg/mL]
1,COc1cccc(N2CCN(CN3C(=O)/C(=N\c4ncc(Cc5cc(OC)c(OC)c(OC)c5)c(N)n4)c4cc(Cl)ccc43)CC2)c1,1250

# Tested on: Salmonella enteritidis
# Assay: Antimicrobial activity against Salmonella enterica subsp. enterica serovar Enteritidis after 18 to 20 hr by agar dilution method
# Format: functional
# Settings: not given
row,Structure (SMILES),MIC [µg/mL]
1,COc1cccc(N2CCN(CN3C(=O)/C(=N\c4ncc(Cc5cc(OC)c(OC)c(OC)c5)c(N)n4)c4cc(Cl)ccc43)CC2)c1,1250

# Tested on: Salmonella typhimurium
# Assay: Antimicrobial activity against Salmonella enterica subsp. enterica serovar Typhimurium after 18 to 20 hr by agar dilution method
# Format: functional
# Settings: not given
row,Structure (SMILES),MIC [µg/mL]
1,COc1cccc(N2CCN(CN3C(=O)/C(=N\c4ncc(Cc5cc(OC)c(OC)c(OC)c5)c(N)n4)c4cc(Cl)ccc43)CC2)c1,2500

# Tested on: Proteus mirabilis
# Assay: Antimicrobial activity against Proteus mirabilis after 18 to 20 hr by agar dilution method
# Format: functional
# Settings: not given
row,Structure (SMILES),MIC [µg/mL]
1,COc1cccc(N2CCN(CN3C(=O)/C(=N\c4ncc(Cc5cc(OC)c(OC)c(OC)c5)c(N)n4)c4cc(Cl)ccc43)CC2)c1,2500

# Tested on: Proteus vulgaris
# Assay: Antimicrobial activity against Proteus vulgaris after 18 to 20 hr by agar dilution method
# Format: functional
# Settings: not given
row,Structure (SMILES),MIC [µg/mL]
1,COc1cccc(N2CCN(CN3C(=O)/C(=N\c4ncc(Cc5cc(OC)c(OC)c(OC)c5)c(N)n4)c4cc(Cl)ccc43)CC2)c1,1250

# Tested on: Edwardsiella tarda
# Assay: Antimicrobial activity against Edwardsiella tarda after 18 to 20 hr by agar dilution method
# Format: functional
# Settings: not given
row,Structure (SMILES),MIC [µg/mL]
1,COc1cccc(N2CCN(CN3C(=O)/C(=N\c4ncc(Cc5cc(OC)c(OC)c(OC)c5)c(N)n4)c4cc(Cl)ccc43)CC2)c1,1250

# Tested on: Escherichia coli
# Assay: Antimicrobial activity against Escherichia coli NCTC 10418 after 18 to 20 hr by agar dilution method
# Format: functional
# Settings: not given
row,Structure (SMILES),MIC [µg/mL]
1,COc1cccc(N2CCN(CN3C(=O)/C(=N\c4ncc(Cc5cc(OC)c(OC)c(OC)c5)c(N)n4)c4cc(Cl)ccc43)CC2)c1,2500

# Tested on: Salmonella typhi
# Assay: Antimicrobial activity against Salmonella enterica subsp. enterica serovar Typhi after 18 to 20 hr by agar dilution method
# Format: functional
# Settings: not given
row,Structure (SMILES),MIC [µg/mL]
1,COc1cccc(N2CCN(CN3C(=O)/C(=N\c4ncc(Cc5cc(OC)c(OC)c(OC)c5)c(N)n4)c4cc(Cl)ccc43)CC2)c1,1250

# Tested on: Salmonella paratyphi
# Assay: Antimicrobial activity against Salmonella enterica subsp. enterica serovar Paratyphi A after 18 to 20 hr by agar dilution method
# Format: functional
# Settings: not given
row,Structure (SMILES),MIC [µg/mL]
1,COc1cccc(N2CCN(CN3C(=O)/C(=N\c4ncc(Cc5cc(OC)c(OC)c(OC)c5)c(N)n4)c4cc(Cl)ccc43)CC2)c1,156

# Tested on: Vibrio parahaemolyticus
# Assay: Antimicrobial activity against Vibrio parahaemolyticus after 18 to 20 hr by agar dilution method
# Format: functional
# Settings: not given
row,Structure (SMILES),MIC [µg/mL]
1,COc1cccc(N2CCN(CN3C(=O)/C(=N\c4ncc(Cc5cc(OC)c(OC)c(OC)c5)c(N)n4)c4cc(Cl)ccc43)CC2)c1,2.44

# Tested on: Vibrio cholerae
# Assay: Antimicrobial activity against Vibrio cholerae 0139 after 18 to 20 hr by agar dilution method
# Format: functional
# Settings: 139
row,Structure (SMILES),MIC [µg/mL]
1,COc1cccc(N2CCN(CN3C(=O)/C(=N\c4ncc(Cc5cc(OC)c(OC)c(OC)c5)c(N)n4)c4cc(Cl)ccc43)CC2)c1,312

# Tested on: Vibrio fluvialis
# Assay: Antimicrobial activity against Vibrio fluvialis after 18 to 20 hr by agar dilution method
# Format: functional
# Settings: not given
row,Structure (SMILES),MIC [µg/mL]
1,COc1cccc(N2CCN(CN3C(=O)/C(=N\c4ncc(Cc5cc(OC)c(OC)c(OC)c5)c(N)n4)c4cc(Cl)ccc43)CC2)c1,1250

# Tested on: Vibrio mimicus
# Assay: Antimicrobial activity against Vibrio mimicus after 18 to 20 hr by agar dilution method
# Format: functional
# Settings: not given
row,Structure (SMILES),MIC [µg/mL]
1,COc1cccc(N2CCN(CN3C(=O)/C(=N\c4ncc(Cc5cc(OC)c(OC)c(OC)c5)c(N)n4)c4cc(Cl)ccc43)CC2)c1,0.61

# Tested on: Pseudomonas aeruginosa
# Assay: Antimicrobial activity against Pseudomonas aeruginosa after 18 to 20 hr by agar dilution method
# Format: functional
# Settings: not given
row,Structure (SMILES),MIC [µg/mL]
1,COc1cccc(N2CCN(CN3C(=O)/C(=N\c4ncc(Cc5cc(OC)c(OC)c(OC)c5)c(N)n4)c4cc(Cl)ccc43)CC2)c1,2500

# Tested on: Staphylococcus aureus
# Assay: Antimicrobial activity against Staphylococcus aureus after 18 to 20 hr by agar dilution method
# Format: functional
# Settings: not given
row,Structure (SMILES),MIC [µg/mL]
1,COc1cccc(N2CCN(CN3C(=O)/C(=N\c4ncc(Cc5cc(OC)c(OC)c(OC)c5)c(N)n4)c4cc(Cl)ccc43)CC2)c1,156

# Tested on: Morganella morganii
# Assay: Antimicrobial activity against Morganella morganii after 18 to 20 hr by agar dilution method
# Format: functional
# Settings: not given
row,Structure (SMILES),MIC [µg/mL]
1,COc1cccc(N2CCN(CN3C(=O)/C(=N\c4ncc(Cc5cc(OC)c(OC)c(OC)c5)c(N)n4)c4cc(Cl)ccc43)CC2)c1,2500

# Tested on: Shigella boydii
# Assay: Antimicrobial activity against Shigella boydii after 18 to 20 hr by agar dilution method
# Format: functional
# Settings: not given
row,Structure (SMILES),MIC [µg/mL]
1,COc1cccc(N2CCN(CN3C(=O)/C(=N\c4ncc(Cc5cc(OC)c(OC)c(OC)c5)c(N)n4)c4cc(Cl)ccc43)CC2)c1,0.61

# Tested on: Plesiomonas
# Assay: Antimicrobial activity against Plesiomonas after 18 to 20 hr by agar dilution method
# Format: functional
# Settings: not given
row,Structure (SMILES),MIC [µg/mL]
1,COc1cccc(N2CCN(CN3C(=O)/C(=N\c4ncc(Cc5cc(OC)c(OC)c(OC)c5)c(N)n4)c4cc(Cl)ccc43)CC2)c1,0.61

# Tested on: Shigella sonnei
# Assay: Antimicrobial activity against Shigella sonnei after 18 to 20 hr by agar dilution method
# Format: functional
# Settings: not given
row,Structure (SMILES),MIC [µg/mL]
1,COc1cccc(N2CCN(CN3C(=O)/C(=N\c4ncc(Cc5cc(OC)c(OC)c(OC)c5)c(N)n4)c4cc(Cl)ccc43)CC2)c1,625

# Tested on: Klebsiella pneumoniae
# Assay: Antimicrobial activity against Klebsiella pneumoniae after 18 to 20 hr by agar dilution method
# Format: functional
# Settings: not given
row,Structure (SMILES),MIC [µg/mL]
1,COc1cccc(N2CCN(CN3C(=O)/C(=N\c4ncc(Cc5cc(OC)c(OC)c(OC)c5)c(N)n4)c4cc(Cl)ccc43)CC2)c1,625

# Tested on: Klebsiella pneumoniae
# Assay: Antimicrobial activity against Klebsiella pneumoniae subsp. ozaenae after 18 to 20 hr by agar dilution method
# Format: functional
# Settings: not given
row,Structure (SMILES),MIC [µg/mL]
1,COc1cccc(N2CCN(CN3C(=O)/C(=N\c4ncc(Cc5cc(OC)c(OC)c(OC)c5)c(N)n4)c4cc(Cl)ccc43)CC2)c1,1250

# Tested on: Mycobacterium tuberculosis
# Assay: Antimycobacterial activity against Mycobacterium tuberculosis H37Rv ATCC 27294 at 6.25 ug/ml by MABA
# Format: functional
# Settings: not given
row,Structure (SMILES),inhibition at 6.25 µg/mL [%]
1,COc1cccc(N2CCN(CN3C(=O)/C(=N\c4ncc(Cc5cc(OC)c(OC)c(OC)c5)c(N)n4)c4cc(Cl)ccc43)CC2)c1,33

# Tested on: not listed separately
# Assay: Cytotoxicity against Homo sapiens (human) HuH7 cells assessed as cell growth at 50 ug/ml after 3 days by Neutral red assay
# Format: cell-based, Huh-7
# Settings: read-out: Activity
row,Structure (SMILES),"viability at 72 h, 50 ug/ml [%]"
1,COc1cccc(N2CCN(CN3C(=O)/C(=N\c4ncc(Cc5cc(OC)c(OC)c(OC)c5)c(N)n4)c4cc(Cl)ccc43)CC2)c1,71

# Tested on: not listed separately
# Assay: Cytotoxicity against Homo sapiens (human) CEM cells after 5 days by MTT assay
# Format: cell-based
# Settings: CEM cells (CCRF-CEM)
row,Structure (SMILES),CC50 at 120 h [µg/mL]
1,COc1cccc(N2CCN(CN3C(=O)/C(=N\c4ncc(Cc5cc(OC)c(OC)c(OC)c5)c(N)n4)c4cc(Cl)ccc43)CC2)c1,23.3

# Tested on: Human immunodeficiency virus 1
# Assay: Antiviral activity against Human immunodeficiency virus 1 IIIB infected CEM cells assessed as protection against viral infection after 6 days by XTT assay
# Format: functional, CCRF-CEM
# Set-up: concentration or dose not given beside the values
# Settings: not given
row,Structure (SMILES),Activity [%]
1,COc1cccc(N2CCN(CN3C(=O)/C(=N\c4ncc(Cc5cc(OC)c(OC)c(OC)c5)c(N)n4)c4cc(Cl)ccc43)CC2)c1,21.93

# Tested on: Human immunodeficiency virus 1
# Assay: Antiviral activity against Human immunodeficiency virus 1 IIIB infected CEM cells assessed as inhibition of virus-induced cytopathicity after 6 days by XTT assay
# Format: functional, organism-based
# Settings: CCRF-CEM, 144 h
row,Structure (SMILES),EC50 [µg/mL]
1,COc1cccc(N2CCN(CN3C(=O)/C(=N\c4ncc(Cc5cc(OC)c(OC)c(OC)c5)c(N)n4)c4cc(Cl)ccc43)CC2)c1,> 23.3

# Tested on: not listed separately
# Assay: Cytotoxicity against Homo sapiens (human) MT4 cells after 5 days by MTT assay
# Format: cell-based
# Settings: not given
row,Structure (SMILES),CC50 at 120 h [µg/mL]
1,COc1cccc(N2CCN(CN3C(=O)/C(=N\c4ncc(Cc5cc(OC)c(OC)c(OC)c5)c(N)n4)c4cc(Cl)ccc43)CC2)c1,32.6

# Tested on: Human immunodeficiency virus 1
# Assay: Antiviral activity against Human immunodeficiency virus 1 IIIB infected MT4 cells assessed as inhibition of virus-induced cytopathicity after 5 days by MTT assay
# Format: functional, organism-based
# Settings: MT4, 120 h
row,Structure (SMILES),EC50 [µg/mL]
1,COc1cccc(N2CCN(CN3C(=O)/C(=N\c4ncc(Cc5cc(OC)c(OC)c(OC)c5)c(N)n4)c4cc(Cl)ccc43)CC2)c1,> 32.6

# Tested on: Hepatitis C virus
# Assay: Antiviral activity against Hepatitis C virus BM4-5 infected in Huh7 cells assessed as inhibition of viral RNA replication by phosphor screening method
# Format: functional, Hepacivirus hominis, Huh-7
# Settings: not given
row,Structure (SMILES),inhibition (INH) [%]
1,COc1cccc(N2CCN(CN3C(=O)/C(=N\c4ncc(Cc5cc(OC)c(OC)c(OC)c5)c(N)n4)c4cc(Cl)ccc43)CC2)c1,100

# Tested on: Human immunodeficiency virus 1
# Assay: Antiviral activity against Human immunodeficiency virus 1 IIIB infected MT4 cells assessed as protection against viral infection after 5 days by MTT assay
# Format: functional
# Set-up: concentration or dose not given beside the values
# Settings: not given
row,Structure (SMILES),Activity [%]
1,COc1cccc(N2CCN(CN3C(=O)/C(=N\c4ncc(Cc5cc(OC)c(OC)c(OC)c5)c(N)n4)c4cc(Cl)ccc43)CC2)c1,10.7
